Experimental data from EP2138586A1, “Process for the regioselective preparation of disaccharides or oligosaccharides” (Cognis IP Management GmbH, priority 2008, dated 2009).

Experiment: log P of the solvents used in the transglycosylation (Table 1)
Assay type: physicochemical
Conditions: property of the dialkyl amide solvent; method not described

logP | SMILES
1.42 | CCCCCCCC(=O)N(C)C [CDMA, caprylic dimethyl amide]
-0.69 | CC(O)C(=O)N(C)C (centres unmarked) [LDMA, lactic acid dimethyl amide]
